From patent US20180280340A1, “METHOD OF TREATING AND PREVENTING INFECTIONS” (priority 2017, published 2018)

Experiments:
G. vaginalis [1] = experiment: broth microdilution assay to determine MIC and sub-MICs of BPO; format: cell-based; conditions: Gardnerella vaginalis, DMSO solution of BPO, read-out: concentration required to completely inhibit the growth of G. vaginalis (MIC)
Description: Experimental Details: At a first step of the experiment, a broth microdilution assay was used to determine MIC and sub-MICs of BPO against G. vaginalis, a leading microorganism responsible for Bacterial Vaginosis. […] Note that in this test, the prototype of the vaginal gel was not used, but a DMSO solution of PBO (solution required for 96-well microplate) was used. Consequently, the inhibitory concentration for G. vaginalis found in this test cannot be compared with the inhibitory concentrations for BPO-gel as found in the previous experiments (Xu et al., 2013).

G. vaginalis biofilm = experiment: biofilm production inhibition, colorimetric biofilm staining; format: cell-based, Gardnerella vaginalis
Procedure: As a second step, the concentrations, which inhibited biofilm production, were determined. Several concentrations of BPO were tested: 0, 31.25, 62.5, 125, and 250 μg/mL. A colorimetric method was used for biofilm staining and to determine the biofilm integrity percent after the treatment. Note that in this test, the prototype of the vaginal gel was not used, but a DMSO solution of PBO (solution required for 96-well microplate) was used. Consequently, the inhibitory concentration for G. vaginalis found in this test cannot be compared with the inhibitory concentrations for BPO-gel as found in the previous experiments (Xu et al., 2013).

G. vaginalis [2] = experiment: bacterial cells viability under sub-MIC BPO treatment; format: cell-based, Gardnerella vaginalis; conditions: highest sub-MIC concentration of 250 μg/mL

With `O=C(OOC(=O)c1ccccc1)c1ccccc1` [BPO, Benzoyl peroxide] the MIC (G. vaginalis [1]) was over 250 µg/mL, the biofilm prevention (G. vaginalis biofilm; 125 μg/mL BPO) was “more than 40%” and the inhibition at 250 µg/mL (G. vaginalis biofilm; Gardnerella vaginalis, 250 μg/mL BPO (sub-MIC), compared with the control, read-out: biofilm formation inhibited) was about 80%. For the same molecule, the biofilm integrity (G. vaginalis biofilm; around 250 μg/mL BPO) was 20% and the bacterial cells viability (G. vaginalis [2]) was “not influenced”.
